Key:
Format in all cases: binding
[1] = biological target: T1, FZD5 (Homo sapiens, UniProt Q13467); assay: NanoBRET screen HiBiT-FZD5 in HEK293; settings: FZD5
T1 construct: purchased Promega (in-house HiBiT-GPCR construct library, NanoBRET)
Procedure: (§1) Each tracer candidate was screened across the entire library of HiBiT-GPCR constructs using NanoBRET as the detection modality. As depicted in Figure 4A, the specificity of interactions was evaluated through decrease in BRET due to competitive displacement of a bound tracer by excess parental compound. Each tracer was analyzed for binding to each HiBiT-GPCR fusion in the absence and in the presence of competing parental compound. Briefly, HEK293 cells were transfected with HiBiT-GPCR constructs diluted into promoterless DNA to reduce expression and maximize translocation to the cell surface. Each tracer candidate was then screened at concentrations of 1 μM and 0.1 μM across cells expressing these fusions. Cells were treated for 1.5 h with tracer either alone or in the presence of 20 μM competing parental compound (i.e., control). BRET was measured upon addition of purified LgBiT and subsequent complementation with HiBiT genetically fused to a GPCR. The specificity of interactions was assessed through a decrease in BRET signal due to competitive displacement of the bound tracer. To further gauge the robustness of these interactions, the fold response over the control (i.e., BRETtracer/BRETcontrol) was calculated. We chose a 1.5-fold response, which translates to ≥7-fold signal over noise as the minimal threshold required to score an interaction as positive. […]. Below we highlight the screening results obtained for our exemplary fluorescent tracers based on Clozapine, Amitriptyline and AZD1283.
(§2) HiBiT-GPCR DNA constructs were diluted in 10 mM Tris pH 8 to a final concentration of 0.01 μg/μL, arrayed in 96-well plates and stored at −20 °C. For transfection, HEK293 cells were suspended in Opti-MEM (without phenol red) supplemented with 2% fetal bovine serum (Seradigm) and 100 units/mL penicillin–streptomycin (Gibco) at a final concentration of 220,000 cells/mL and dispensed into white 96-well plates at 90 μL/well. Subsequent transfections and screens were carried using an Agilent Bravo Automated Liquid Handling Platform. First, the 96-well HiBiT DNA arrays were diluted 25-fold in Opti-MEM (without serum or phenol red) to a final concentration of 0.0004 μg/μL and 20 μL of the diluted DNAs were transferred into new 96-well plates. Next, promoterless carrier DNA (1 μg/μL) was diluted 25-fold (0.04 μg/μL) and then dispensed into the diluted arrays at 20 μL/well. Following brief mixing, Viafect transfection reagent (Promega) diluted 16-fold into Opti-MEM was dispensed into the plates at 40 μL/well. After mixing by pipetting, plates were incubated for 10 min on the pipetting station deck. The DNA-transfection reagent complexes were then added to plates containing cells. To facilitate the screen, 10 μL of DNA-transfection reagent complexes were added in duplicates to the top 4 and bottom 4 rows, resulting in two identical 48-well arrays per plate. Plates with transfected cells were incubated for 18–20 h at 37 °C/5% CO2. A screen of each tracer across the entire library using two different concentrations requires duplicate plates of transfected cells. Depending on the number of tracers being screened, transfections can be scaled up using the same ratios. The next day, for each tracer, four 20× screening solutions in tracer dilution buffer (Promega) were prepared: two duplicates at final concentration of 20 μM and two duplicates at a final concentration of 2 μM. A competing unmodified compound was added to one of each duplicate at a final concentration of 400 μM. The four resulting solutions were diluted 4-fold in Opti-MEM without serum or phenol red to generate 5× solutions (5 µM and 0.5 µM tracer +/− 100 μM competing compound). To screen the library, a BioTek MultiFlo FX liquid dispenser was used to dispense 22.5 µL of tracer solution to the top 4 rows and 22.5 µL tracer + competing compound solution to the 4 bottom rows. Plates were briefly mixed on an orbital shaker and incubated for 1.5 h at room temperature. […]

[2] = biological target: T2, HCRTR2 (Homo sapiens, UniProt O43614); assay: NanoBRET screen HiBiT-HCRTR2 in HEK293; settings: HCRTR2
T2 construct: purchased Promega (in-house HiBiT-GPCR construct library, NanoBRET)
T2 sequence (O43614 1-444): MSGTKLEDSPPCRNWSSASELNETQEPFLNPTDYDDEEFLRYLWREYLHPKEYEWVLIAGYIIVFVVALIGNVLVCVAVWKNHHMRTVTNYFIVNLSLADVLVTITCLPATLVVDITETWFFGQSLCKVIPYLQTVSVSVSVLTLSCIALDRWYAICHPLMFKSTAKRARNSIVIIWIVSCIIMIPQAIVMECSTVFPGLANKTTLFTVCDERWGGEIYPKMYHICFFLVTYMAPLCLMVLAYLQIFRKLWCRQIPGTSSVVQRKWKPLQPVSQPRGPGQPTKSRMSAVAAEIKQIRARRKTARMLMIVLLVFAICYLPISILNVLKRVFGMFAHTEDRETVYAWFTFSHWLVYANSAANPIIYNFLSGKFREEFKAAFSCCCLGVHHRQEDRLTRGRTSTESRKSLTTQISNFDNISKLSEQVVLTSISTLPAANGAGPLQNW
Procedure: as §1, §2

[3] = biological target: T3, GRM2 (Homo sapiens, UniProt Q14416); assay: NanoBRET screen HiBiT-GRM2 in HEK293; settings: GRM2
T3 construct: purchased Promega (in-house HiBiT-GPCR construct library, NanoBRET)
T3 sequence (Q14416 19-872): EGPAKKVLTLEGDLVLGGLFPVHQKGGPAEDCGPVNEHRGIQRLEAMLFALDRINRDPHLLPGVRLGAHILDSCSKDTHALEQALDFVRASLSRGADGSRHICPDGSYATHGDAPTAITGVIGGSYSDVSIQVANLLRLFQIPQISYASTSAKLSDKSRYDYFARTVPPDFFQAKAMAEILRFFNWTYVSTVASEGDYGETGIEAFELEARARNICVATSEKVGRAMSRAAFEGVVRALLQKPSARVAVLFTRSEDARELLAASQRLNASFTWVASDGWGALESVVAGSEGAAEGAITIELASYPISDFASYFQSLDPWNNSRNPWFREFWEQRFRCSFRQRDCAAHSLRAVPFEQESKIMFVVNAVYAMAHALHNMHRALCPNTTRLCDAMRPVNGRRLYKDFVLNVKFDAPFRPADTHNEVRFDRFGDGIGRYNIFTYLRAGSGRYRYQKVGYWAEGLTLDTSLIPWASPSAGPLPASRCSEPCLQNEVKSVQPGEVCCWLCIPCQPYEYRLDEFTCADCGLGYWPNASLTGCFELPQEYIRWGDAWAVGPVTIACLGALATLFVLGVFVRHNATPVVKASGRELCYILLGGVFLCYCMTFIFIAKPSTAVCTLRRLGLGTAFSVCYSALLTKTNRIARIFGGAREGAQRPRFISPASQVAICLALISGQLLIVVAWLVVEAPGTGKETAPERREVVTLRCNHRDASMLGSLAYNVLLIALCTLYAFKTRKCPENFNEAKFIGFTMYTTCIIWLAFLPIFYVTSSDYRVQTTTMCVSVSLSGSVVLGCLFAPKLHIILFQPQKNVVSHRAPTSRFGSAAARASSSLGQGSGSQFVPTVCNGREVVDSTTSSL
Procedure: as §1, §2

T1 sequence (Q13467 27-585): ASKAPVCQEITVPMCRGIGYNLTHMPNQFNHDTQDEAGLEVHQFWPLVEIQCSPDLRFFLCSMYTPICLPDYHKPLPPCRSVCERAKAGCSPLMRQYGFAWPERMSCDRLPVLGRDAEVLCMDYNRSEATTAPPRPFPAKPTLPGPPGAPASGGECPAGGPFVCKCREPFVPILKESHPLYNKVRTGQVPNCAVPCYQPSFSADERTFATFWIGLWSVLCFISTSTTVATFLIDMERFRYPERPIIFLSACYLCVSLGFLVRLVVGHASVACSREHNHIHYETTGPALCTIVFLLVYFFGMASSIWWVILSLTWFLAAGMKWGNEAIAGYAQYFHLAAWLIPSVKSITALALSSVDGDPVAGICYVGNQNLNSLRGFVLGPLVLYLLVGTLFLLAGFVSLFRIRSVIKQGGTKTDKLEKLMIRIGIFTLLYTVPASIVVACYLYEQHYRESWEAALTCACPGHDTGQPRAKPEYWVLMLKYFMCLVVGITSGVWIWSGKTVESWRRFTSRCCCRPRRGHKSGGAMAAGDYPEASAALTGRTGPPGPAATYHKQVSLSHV

Row | SMILES | NanoBRET Fold Response ([1]; tracer 0.1μM) | NanoBRET Fold Response ([1]; tracer 1μM) | NanoBRET Fold Response ([2]; tracer 0.1μM) | NanoBRET Fold Response ([2]; tracer 1μM) | NanoBRET Fold Response ([3]; tracer 0.1μM) | NanoBRET Fold Response ([3]; tracer 1μM) | further results
1 | CN1CCN(C2=Nc3cc(Cl)ccc3Nc3ccc(CNC(=O)CCOCCOCCOCCOCCNC(=O)CCc4ccc5n4[B-](F)(F)[N+]4=C(c6ccc[nH]6)C=CC4=C5)cc32)CC1 [Clozapine-b-2-NB590] |  |  |  |  |  |  | NanoBRET Fold Response ([1]; 0.1μM tracer): 1.00; NanoBRET Fold Response ([1]; 1μM tracer): 1.04; NanoBRET Fold Response ([2]; 0.1μM tracer): 0.99; NanoBRET Fold Response ([2]; 1μM tracer): 0.98; NanoBRET Fold Response ([3]; 0.1μM tracer): 1.01; NanoBRET Fold Response ([3]; 1μM tracer): 1.04
2 | CN1CCN(C2=Nc3cc(Cl)ccc3N(CC(=O)NCCOCCOCCOCCOCCNC(=O)CCc3ccc4n3[B-](F)(F)[N+]3=C(c5ccc[nH]5)C=CC3=C4)c3ccccc32)CC1 [Clozapine-c-2-NB590] |  |  |  |  |  |  | NanoBRET Fold Response ([1]; 0.1μM tracer): 1.00; NanoBRET Fold Response ([1]; 1μM tracer): 1.04; NanoBRET Fold Response ([2]; 0.1μM tracer): 0.97; NanoBRET Fold Response ([2]; 1μM tracer): 1.04; NanoBRET Fold Response ([3]; 0.1μM tracer): 0.97; NanoBRET Fold Response ([3]; 1μM tracer): 1.00
3 | O=C(CCOCCOCCOCCOCCNC(=O)CCc1ccc2n1[B-](F)(F)[N+]1=C(c3ccc[nH]3)C=CC1=C2)NCCCN1CCN(C2=Nc3ccccc3Oc3ccc(Cl)cc32)CC1 [Loxapine-a-2-NB590] | 1.01 | 0.89 | 1.13 | 1.16 | 1.00 | 1.25 | 
4 | COc1ccccc1N1CCN(CCCCN2C(=O)c3ccc(CNC(=O)CCOCCOCCOCCOCCNC(=O)CCc4ccc5n4[B-](F)(F)[N+]4=C(c6ccc[nH]6)C=CC4=C5)cc3C2=O)CC1 [NAN-190-2-NB590] | 0.97 | 1.00 | 1.02 | 1.00 | 0.26 | 1.00 | 
5 | COc1ccccc1N1CCN(CCCCN2C(=O)c3ccc(CNC(=O)CCOCCNC(=O)c4ccc(CNC(=O)CCc5ccc6n5[B-](F)(F)[N+]5=C(c7ccc[nH]7)C=CC5=C6)cc4)cc3C2=O)CC1 [NAN-190-3-NB590] | 0.97 | 1.00 | 0.98 | 0.97 | 1.03 | 1.03 | 
6 | O=C(CCc1ccc2n1[B-](F)(F)[N+]1=C(c3ccc[nH]3)C=CC1=C2)NCc1ccc(C(=O)NCCOCCC(=O)N[C@@H]2CC[C@@]3(O)[C@H]4Cc5ccc(O)c6c5[C@@]3(CCN4CC3CC3)[C@H]2O6)cc1 [Naltrexone-3-NB590] | 0.99 | 0.98 | 1.04 | 1.01 | 0.92 | 0.98 | 
7 | Cc1cc2c(s1)Nc1ccccc1N=C2N1CCN(CCCNC(=O)CCOCCOCCOCCOCCNC(=O)CCc2ccc3n2[B-](F)(F)[N+]2=C(c4ccc[nH]4)C=CC2=C3)CC1 [Olanzapine-a-2-NB590] | 1.00 | 1.02 | 0.95 | 0.97 | 1.00 | 1.01 | 
8 | O=C(CCc1ccc2n1[B-](F)(F)[N+]1=C(c3ccc[nH]3)C=CC1=C2)NCc1ccc(C(=O)NCCOCCOCCNCC(O)COc2cccc3ccccc23)cc1 (stereo not drawn) [Propranolol-3-NB590] |  |  |  |  |  |  | NanoBRET Fold Response ([1]; 0.1μM): 1.07; NanoBRET Fold Response ([1]; 1μM): 1.02; NanoBRET Fold Response ([2]; 0.1μM): 1.09; NanoBRET Fold Response ([2]; 1μM): 1.00; NanoBRET Fold Response ([3]; 0.1μM): 0.94; NanoBRET Fold Response ([3]; 1μM): 1.05
